From the NIST ThermoML archive (doi:10.1016/j.jct.2019.01.016)
“And” between values parts separate entries of the source, which are not always exact repeats. Identical values can stand only once.

Key:
[1] = Molar enthalpy of transition or fusion; settings: DSC
[2] = for mass density: 101.33 kPa, X-ray diffraction; for Normal melting temperature: DTA
[3] = molar enthalpy of vaporization or sublimation; settings: Static calorimetry
[4] = molar heat capacity at constant pressure; settings: 101.33 kPa, Crystal 2, DSC

[C-]#[O+].[C-]#[O+].[C-]#[O+].[C-]#[O+].[C-]#[O+].[C-]#[O+].[C-]#[O+].[C-]#[O+].[C-]#[O+].[C-]#[O+].[Re].[Re] [decacarbonyldirhenium]
Settings | Molar enthalpy of transition or fusion [kcal/mol] | Normal melting temperature [°C] | Triple point temperature [K] | molar heat capacity at constant pressure [J/K/mol]
[1], Crystal 1 | 1 | – | – | –
[1], Crystal 2 | 3.66 | – | – | –
[2], Crystal 1 | – | 182.01 | – | –
[2], Crystal 2, DSC | – | – | 366.75 | –
[4], 298.15 K | – | – | – | 391.8
[4], 303.15 K | – | – | – | 396.5
[4], 308.15 K | – | – | – | 401.1
[4], 313.15 K | – | – | – | 405.5
[4], 318.15 K | – | – | – | 409.8
[4], 323.15 K | – | – | – | 413.9
[4], 328.15 K | – | – | – | 417.9
[4], 333.15 K | – | – | – | 421.8
[4], 338.15 K | – | – | – | 425.5

Settings | mass density [kg/m3] | molar enthalpy [kcal/mol]
[2], 293 K, Crystal | 2932 | –
[3], 332.8 K, Crystal 2 | – | 23

[CH3][Re](=[O])(=[O])=[O] [methyltrioxorhenium]
Crystal
Settings | Molar enthalpy of transition or fusion [kcal/mol] | Normal melting temperature [°C]
[1] | 4.72 | –
[2] | – | 112.59

Crystal
Settings | mass density, 167 K [kg/m3] | mass density, 214 K [kg/m3] | mass density, 296 K | molar enthalpy, 298 K [kcal/mol]
[2] | 4254 | 4199 | 4124 kg/m3 and 4132 kg/m3 | –
[3] | – | – | – | 16.79
